# In ChEMBL document CHEMBL1133242, “Selective alpha1a adrenergic receptor antagonists based on 4-aryl-3,4-dihydropyridine-2-ones” (Bioorg Med Chem Lett, 2000):
# What was measured:
# [1] = biological target: T1, Alpha-1B adrenergic receptor (Homo sapiens, UniProt P35368); test: In vitro antagonism at Alpha-1B adrenergic receptor; assay type: functional
# T1 sequence (P35368 whole entry): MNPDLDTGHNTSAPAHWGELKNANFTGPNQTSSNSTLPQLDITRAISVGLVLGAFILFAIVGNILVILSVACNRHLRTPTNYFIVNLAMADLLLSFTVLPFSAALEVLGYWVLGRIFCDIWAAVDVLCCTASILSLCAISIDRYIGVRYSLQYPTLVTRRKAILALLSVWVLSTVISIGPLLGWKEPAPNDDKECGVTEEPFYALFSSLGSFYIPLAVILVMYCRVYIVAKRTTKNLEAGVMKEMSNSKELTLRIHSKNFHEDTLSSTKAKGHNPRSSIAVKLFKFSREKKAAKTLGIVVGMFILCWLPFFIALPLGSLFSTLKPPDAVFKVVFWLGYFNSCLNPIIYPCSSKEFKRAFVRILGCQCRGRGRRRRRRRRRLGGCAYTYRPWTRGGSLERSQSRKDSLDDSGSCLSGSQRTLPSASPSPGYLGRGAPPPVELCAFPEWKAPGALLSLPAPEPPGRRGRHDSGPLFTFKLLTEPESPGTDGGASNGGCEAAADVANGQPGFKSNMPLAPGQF
# [2] = biological target: T2, Alpha-1D adrenergic receptor (Homo sapiens, UniProt P25100); test: In vitro antagonism at Alpha-1D adrenergic receptor; assay type: functional
# T2 sequence (P25100 whole entry): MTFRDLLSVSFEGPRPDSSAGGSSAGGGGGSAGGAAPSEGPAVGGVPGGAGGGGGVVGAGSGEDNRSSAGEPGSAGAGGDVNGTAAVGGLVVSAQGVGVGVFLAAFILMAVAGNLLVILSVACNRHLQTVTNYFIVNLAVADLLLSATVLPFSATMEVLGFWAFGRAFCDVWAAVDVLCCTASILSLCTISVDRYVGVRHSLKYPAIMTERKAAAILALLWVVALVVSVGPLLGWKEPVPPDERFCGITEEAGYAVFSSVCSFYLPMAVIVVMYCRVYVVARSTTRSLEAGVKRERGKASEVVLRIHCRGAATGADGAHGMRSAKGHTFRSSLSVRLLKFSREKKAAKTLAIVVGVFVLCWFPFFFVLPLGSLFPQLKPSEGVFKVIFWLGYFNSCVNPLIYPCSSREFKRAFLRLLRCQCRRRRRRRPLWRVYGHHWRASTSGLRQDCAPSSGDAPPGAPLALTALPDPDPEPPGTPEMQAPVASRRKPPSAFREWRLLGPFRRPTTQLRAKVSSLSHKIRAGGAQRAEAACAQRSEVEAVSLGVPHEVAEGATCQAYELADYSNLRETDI
# [3] = biological target: T3, Alpha-1A adrenergic receptor (Homo sapiens, UniProt P35348); test: In vitro antagonism at Alpha-1A adrenergic receptor; assay type: functional
# T3 sequence (P35348 whole entry): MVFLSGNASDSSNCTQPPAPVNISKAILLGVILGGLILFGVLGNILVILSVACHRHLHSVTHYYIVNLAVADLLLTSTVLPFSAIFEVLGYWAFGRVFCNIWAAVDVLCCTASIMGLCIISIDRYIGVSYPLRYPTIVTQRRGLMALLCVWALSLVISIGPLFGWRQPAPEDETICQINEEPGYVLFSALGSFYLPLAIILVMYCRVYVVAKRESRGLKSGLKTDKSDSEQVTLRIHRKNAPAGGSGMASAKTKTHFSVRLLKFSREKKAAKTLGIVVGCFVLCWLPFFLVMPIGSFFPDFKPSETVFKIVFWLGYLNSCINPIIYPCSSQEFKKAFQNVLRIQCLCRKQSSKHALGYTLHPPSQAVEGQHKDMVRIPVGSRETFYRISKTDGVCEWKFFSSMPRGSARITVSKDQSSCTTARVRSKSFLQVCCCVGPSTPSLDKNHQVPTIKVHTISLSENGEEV
# Histamine H1 receptor = Histamine H1 receptor (Homo sapiens, UniProt P35367); test: Selectivity screen against human Histamine H1 receptor
# Histamine H1 receptor, sequence (P35367 whole entry): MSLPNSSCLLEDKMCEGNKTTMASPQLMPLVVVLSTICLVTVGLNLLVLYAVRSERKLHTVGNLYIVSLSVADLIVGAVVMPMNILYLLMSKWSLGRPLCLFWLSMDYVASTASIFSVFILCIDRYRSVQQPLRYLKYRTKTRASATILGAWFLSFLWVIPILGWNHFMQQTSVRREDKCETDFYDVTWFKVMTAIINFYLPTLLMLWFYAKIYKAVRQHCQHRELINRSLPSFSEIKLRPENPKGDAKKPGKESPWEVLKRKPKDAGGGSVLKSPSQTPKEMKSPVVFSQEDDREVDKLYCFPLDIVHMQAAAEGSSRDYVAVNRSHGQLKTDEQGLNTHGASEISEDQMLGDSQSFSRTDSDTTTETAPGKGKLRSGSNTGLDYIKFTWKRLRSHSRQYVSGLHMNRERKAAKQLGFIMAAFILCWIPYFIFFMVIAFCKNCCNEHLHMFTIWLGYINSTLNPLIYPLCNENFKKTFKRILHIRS
# [4] = t1/2 value in rat; assay type: ADME, organism-based; settings: in vivo
# [5] = biological target: T4, Alpha-2A adrenergic receptor (Homo sapiens, UniProt P08913); test: […] inhibitory effect against Alpha-2A adrenergic receptor
# T4 sequence (P08913 whole entry): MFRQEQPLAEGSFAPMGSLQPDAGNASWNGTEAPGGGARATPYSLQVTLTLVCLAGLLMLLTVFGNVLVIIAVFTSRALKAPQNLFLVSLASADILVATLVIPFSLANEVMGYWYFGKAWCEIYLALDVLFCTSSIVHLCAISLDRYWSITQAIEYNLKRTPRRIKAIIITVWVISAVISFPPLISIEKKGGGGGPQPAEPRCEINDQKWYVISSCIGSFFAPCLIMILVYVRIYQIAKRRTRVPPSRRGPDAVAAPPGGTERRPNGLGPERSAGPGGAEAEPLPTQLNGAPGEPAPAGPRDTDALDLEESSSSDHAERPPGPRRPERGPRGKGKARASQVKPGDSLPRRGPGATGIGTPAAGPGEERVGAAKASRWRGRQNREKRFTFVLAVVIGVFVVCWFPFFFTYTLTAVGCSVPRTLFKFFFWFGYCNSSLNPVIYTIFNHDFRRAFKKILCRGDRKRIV
# [6] = biological target: T5, Alpha-2C adrenergic receptor (Homo sapiens, UniProt P18825); test: […] inhibitory effect against Alpha-2C adrenergic receptor
# T5 sequence (P18825 whole entry): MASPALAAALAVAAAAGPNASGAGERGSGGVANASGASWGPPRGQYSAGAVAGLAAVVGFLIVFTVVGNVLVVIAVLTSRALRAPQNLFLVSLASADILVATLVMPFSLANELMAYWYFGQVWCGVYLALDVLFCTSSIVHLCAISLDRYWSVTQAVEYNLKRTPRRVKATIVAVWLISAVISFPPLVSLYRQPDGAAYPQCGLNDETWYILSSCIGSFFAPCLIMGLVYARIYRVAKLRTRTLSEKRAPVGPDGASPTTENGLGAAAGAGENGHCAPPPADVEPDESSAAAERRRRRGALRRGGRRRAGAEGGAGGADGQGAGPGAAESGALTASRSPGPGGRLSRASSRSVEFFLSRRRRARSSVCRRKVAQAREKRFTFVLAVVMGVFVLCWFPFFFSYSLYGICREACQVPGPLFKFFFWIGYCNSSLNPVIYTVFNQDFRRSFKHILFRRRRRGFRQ
# [7] = biological target: T6, Alpha-2B adrenergic receptor (Homo sapiens, UniProt P18089); test: […] inhibitory effect against alpha-2b Adrenergic receptor
# T6 sequence (P18089 whole entry): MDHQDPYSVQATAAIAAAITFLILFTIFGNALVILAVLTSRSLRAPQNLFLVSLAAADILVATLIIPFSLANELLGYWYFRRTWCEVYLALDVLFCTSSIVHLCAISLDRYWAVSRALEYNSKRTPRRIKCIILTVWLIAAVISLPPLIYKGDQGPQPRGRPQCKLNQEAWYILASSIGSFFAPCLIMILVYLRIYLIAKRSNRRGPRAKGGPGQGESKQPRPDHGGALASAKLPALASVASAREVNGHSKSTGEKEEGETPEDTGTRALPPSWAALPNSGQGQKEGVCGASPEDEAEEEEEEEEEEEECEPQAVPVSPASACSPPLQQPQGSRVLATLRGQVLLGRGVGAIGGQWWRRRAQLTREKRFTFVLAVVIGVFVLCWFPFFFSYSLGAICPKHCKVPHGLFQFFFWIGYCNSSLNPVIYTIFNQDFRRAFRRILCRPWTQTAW
# Rattus norvegicus [8] = species: Rattus norvegicus; test: Dose required to inhibit the prostate contractile response by 50% after challenge with selective alpha-1a agonist A61603 and duration of action was 4 hr in an in situ rat prostate model; assay type: functional, Prostate gland
# Rattus norvegicus [9] = species: Rattus norvegicus; test: Dose required to inhibit the prostate contractile response by 50% after challenge with selective alpha-1a agonist A61603 in an in situ rat prostate model; assay type: functional, Prostate gland
# Rattus norvegicus [10] = species: Rattus norvegicus; test: Dose required to inhibit the prostate contractile response by 50% after challenge with selective alpha-1a agonist A61603 and duration of action was 1 hr in an in situ rat prostate model; assay type: functional, Prostate gland
# [11] = Percent bioavailability in dog; assay type: ADME, organism-based, Canis lupus familiaris; settings: in vivo, read-out: Bioavailabiility
# Rattus norvegicus [12] = species: Rattus norvegicus; test: Dose required to inhibit the prostate contractile response by 50% after challenge with selective alpha-1a agonist A61603 and duration of action was 2.5h in an in situ rat prostate model; assay type: functional, Prostate gland
# Rattus norvegicus [13] = species: Rattus norvegicus; test: Dose required to inhibit the prostate contractile response by 50% after challenge with selective alpha-1a agonist A61603 and duration of action was 3.5h in an in situ rat prostate model; assay type: functional, Prostate gland
SMILES,Ki [1],Ki [2],Ki [3],Ki (Histamine H1 receptor),half-life [4],Ki [5],Ki [6],Ki [7],AD50 (Rattus norvegicus [8]),AD50 (Rattus norvegicus [9]),AD50 (Rattus norvegicus [10]),bioavailability [11],AD50 (Rattus norvegicus [12]),AD50 (Rattus norvegicus [13])
CC1=C(C(=O)NCCCN2CCC(c3ccc(F)cc3)CC2)[C@@H](c2ccc(F)c(F)c2)CC(=O)N1C,0.054 µM,0.25 µM,0.0007 µM,–,–,–,–,–,–,–,–,–,–,–
CC1=C(C(=O)NCCCN2CCC(C#N)(c3ccc(F)cc3)CC2)[C@@H](c2ccc(F)c(F)c2)CC(=O)N1,1.04 µM,1.05 µM,0.0018 µM,0.063 µM,–,–,–,–,–,–,–,–,–,–
CC1=C(C(=O)NCCCN2CCC(c3ccc(F)cc3C#N)CC2)[C@@H](c2ccc(F)c(F)c2)CC(=O)N1C,0.366 µM,0.59 µM,0.0008 µM,0.398 µM,1.4 h,4.52 µM,3.85 µM,0.288 µM,0.009 mg/kg,–,–,–,–,–
CC1=C(C(=O)NCCCN2CCC(C#N)(c3ccc(F)cc3)CC2)[C@@H](c2ccc(F)c(F)c2)CC(=O)N1C,0.425 µM,0.88 µM,0.0019 µM,0.355 µM,–,1.86 µM,1.1 µM,0.776 µM,–,0.025 mg/kg,–,–,–,–
CC1=C(C(=O)NCCCN2CCC(C#N)(c3ccc(F)cc3F)CC2)[C@@H](c2ccc(F)c(F)c2)CC(=O)N1C,0.842 µM,1.16 µM,0.0011 µM,0.302 µM,–,3.39 µM,1.91 µM,0.955 µM,–,–,0.029 mg/kg,–,–,–
CC1=C(C(=O)NCCCN2CCC(c3ccccc3C#N)CC2)[C@@H](c2ccc(F)c(F)c2)CC(=O)N1C,1.2 µM,0.682 µM,0.003 µM,–,–,–,–,–,–,–,–,–,–,–
CC1=C(C(=O)NCCCN2CCC(C#N)(c3ccccn3)CC2)[C@@H](c2ccc(F)c(F)c2)CC(=O)N1C,> 2 µM,> 5 µM,–,–,–,–,–,–,–,–,–,–,–,–
CC1=C(C(=O)NCC(C)CN2CCC(C#N)(c3ccccn3)CC2)[C@@H](c2ccc(F)c(F)c2)CC(=O)N1 (some centres not stated),> 2 µM,> 5 µM,0.042 µM,–,–,–,–,–,–,–,–,–,–,–
CC1=C(C(=O)NCCCN2CCC(C#N)(c3ccc(F)cc3C#N)CC2)[C@@H](c2ccc(F)c(F)c2)CC(=O)N1,> 2 µM,> 5 µM,0.0014 µM,0.091 µM,–,7.85 µM,4.68 µM,0.676 µM,–,–,–,–,–,–
CC1=C(C(=O)NCCCN2CCC(c3ccccc3C#N)CC2)[C@@H](c2ccc(F)c(F)c2)CC(=O)N1,0.33 µM,0.33 µM,0.001 µM,–,–,–,–,–,–,–,–,–,–,–
CC1=C(C(=O)NCCCN2CCC(c3ccc(F)cc3C#N)CC2)[C@@H](c2ccc(F)c(F)c2)CC(=O)N1,0.1 µM,0.15 µM,0.0002 µM,0.058 µM,4.8 h,1.29 µM,1.48 µM,0.145 µM,–,–,–,34%,0.005 mg/kg,–
CC1=C(C(=O)NCCCN2CCC(C#N)(c3ccc(F)cc3C#N)CC2)[C@@H](c2ccc(F)c(F)c2)CC(=O)N1C,> 2 µM,> 5 µM,0.007 µM,0.616 µM,–,13.6 µM,6.53 µM,1.76 µM,–,–,–,–,–,–
CC1=C(C(=O)NCCCN2CCC(C#N)(c3ccccc3C#N)CC2)[C@@H](c2ccc(F)c(F)c2)CC(=O)N1C,> 2 µM,> 5 µM,0.013 µM,–,–,–,–,–,–,–,–,–,–,–
CC1=C(C(=O)NCCCN2CCC(c3ccc(F)cc3)CC2)[C@@H](c2ccc(F)c(F)c2)CC(=O)N1,0.037 µM,0.2 µM,0.0004 µM,0.019 µM,–,0.229 µM,0.313 µM,0.162 µM,–,0.032 mg/kg,–,–,–,–
CC1=C(C(=O)NCCCN2CCC(C#N)(c3ccccc3C#N)CC2)[C@@H](c2ccc(F)c(F)c2)CC(=O)N1,> 2 µM,> 5 µM,0.0032 µM,–,–,–,–,–,–,–,–,–,–,–
CCOc1ccccc1OCCN[C@H](C)Cc1ccc(OC)c(S(N)(=O)=O)c1 [TAMSULOSIN],–,–,–,–,–,–,–,–,–,–,–,–,–,0.003 mg/kg
